Reference: PubChem BioAssay (NCI)
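Each compound was tested at five concentrations against cells in 96-well plates for 48 hours. Abbreviation: GI50, concentration required for 50% inhibition of growth. At the TGI there is no net growth.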

Columns and labels:
Test in all cases: NCI tumour cell line growth inhibition, 48 h
SF-295 CNS = system: SF-295 CNS
ACHN renal = system: ACHN renal
SNB-75 CNS = system: SNB-75 CNS
EKVX NSCLC = system: EKVX NSCLC
OVCAR-5 ovarian = system: OVCAR-5 ovarian
NCI-H23 lung = system: NCI-H23 lung
U251 CNS = system: U251 CNS
CCRF-CEM leukemia = system: CCRF-CEM leukemia
OVCAR-3 ovarian = system: OVCAR-3 ovarian
COLO 205 colon = system: COLO 205 colon
DU-145 prostate = system: DU-145 prostate
HT29 colon = system: HT29 colon
HCT-116 colon = system: HCT-116 colon
A498 renal = system: A498 renal
UACC-257 melanoma = system: UACC-257 melanoma
SK-MEL-2 melanoma = system: SK-MEL-2 melanoma
SNB-19 CNS = system: SNB-19 CNS
MDA-MB-231 breast = system: MDA-MB-231 breast
SK-OV-3 ovarian = system: SK-OV-3 ovarian
SK-MEL-28 melanoma = system: SK-MEL-28 melanoma
MALME-3M melanoma = system: MALME-3M melanoma
SF-539 CNS = system: SF-539 CNS
HCC-2998 colon = system: HCC-2998 colon
OVCAR-8 ovarian = system: OVCAR-8 ovarian
HL-60(TB) leukemia = system: HL-60(TB) leukemia
SF-268 CNS = system: SF-268 CNS
RPMI-8226 leukemia = system: RPMI-8226 leukemia
CAKI-1 renal = system: CAKI-1 renal
SR leukemia = system: SR leukemia
A549 NSCLC = system: A549 NSCLC
KM12 colon = system: KM12 colon
786-0 renal = system: 786-0 renal
SK-MEL-5 melanoma = system: SK-MEL-5 melanoma
HOP-92 NSCLC = system: HOP-92 NSCLC
MDA-MB-435 = system: MDA-MB-435
NCI-H226 lung = system: NCI-H226 lung
SW-620 colon = system: SW-620 colon
MDA-MB-468 breast = system: MDA-MB-468 breast
SN12C renal = system: SN12C renal
M14 melanoma = system: M14 melanoma
PC-3 prostate = system: PC-3 prostate
HCT-15 colon = system: HCT-15 colon
IGROV1 ovarian = system: IGROV1 ovarian
UO-31 renal = system: UO-31 renal
LOX IMVI melanoma = system: LOX IMVI melanoma
BT-549 breast = system: BT-549 breast
NCI-H522 lung = system: NCI-H522 lung
HOP-62 NSCLC = system: HOP-62 NSCLC
MCF7 breast = system: MCF7 breast
HS 578T breast = system: HS 578T breast
NCI/ADR-RES ovarian = system: NCI/ADR-RES ovarian
T-47D breast = system: T-47D breast
RXF 393 renal = system: RXF 393 renal
UACC-62 melanoma = system: UACC-62 melanoma
K-562 leukemia = system: K-562 leukemia
OVCAR-4 ovarian = system: OVCAR-4 ovarian
MOLT-4 leukemia = system: MOLT-4 leukemia
TK-10 renal = system: TK-10 renal
NCI-H460 lung = system: NCI-H460 lung

OC1CCC(Cn2c(C(F)(F)F)cc3c(Cl)ncnc32)CC1 (stereo not drawn)
GI50 (SF-295 CNS): 22.7 µM
TGI (SF-295 CNS): 84 µM
GI50 (ACHN renal): 8.76 µM
TGI (ACHN renal): 49.9 µM
GI50 (SNB-75 CNS): 10.8 µM
TGI (SNB-75 CNS): 23.1 µM
GI50 (EKVX NSCLC): 12.9 µM
TGI (EKVX NSCLC): 38.7 µM
GI50 (OVCAR-5 ovarian): > 100 µM
TGI (OVCAR-5 ovarian): > 100 µM
GI50 (NCI-H23 lung): 3.08 µM
TGI (NCI-H23 lung): 11.4 µM
GI50 (U251 CNS): 3.21 µM
TGI (U251 CNS): 12.8 µM
GI50 (CCRF-CEM leukemia): 5.56 µM
TGI (CCRF-CEM leukemia): > 100 µM
GI50 (OVCAR-3 ovarian): 8.04 µM
TGI (OVCAR-3 ovarian): 29.1 µM
GI50 (COLO 205 colon): 24.4 µM
TGI (COLO 205 colon): > 100 µM
GI50 (DU-145 prostate): 7.87 µM
TGI (DU-145 prostate): 20.5 µM
GI50 (HT29 colon): 15.6 µM
TGI (HT29 colon): > 100 µM
GI50 (HCT-116 colon): 3.56 µM
TGI (HCT-116 colon): 15.8 µM
GI50 (A498 renal): > 100 µM
TGI (A498 renal): > 100 µM
GI50 (UACC-257 melanoma): 3.4 µM
TGI (UACC-257 melanoma): 14.1 µM
GI50 (SK-MEL-2 melanoma): 13.2 µM
TGI (SK-MEL-2 melanoma): 27.9 µM
GI50 (SNB-19 CNS): 13.4 µM
TGI (SNB-19 CNS): 26.8 µM
GI50 (MDA-MB-231 breast): 4.45 µM
TGI (MDA-MB-231 breast): 20.1 µM
GI50 (SK-OV-3 ovarian): 22.4 µM
TGI (SK-OV-3 ovarian): > 100 µM
GI50 (SK-MEL-28 melanoma): 9.38 µM
TGI (SK-MEL-28 melanoma): 30.8 µM
GI50 (MALME-3M melanoma): 17.7 µM
TGI (MALME-3M melanoma): 64.5 µM
GI50 (SF-539 CNS): 17.7 µM
TGI (SF-539 CNS): 39 µM
GI50 (HCC-2998 colon): 1.8 µM
TGI (HCC-2998 colon): 3.33 µM
GI50 (OVCAR-8 ovarian): 2.29 µM
TGI (OVCAR-8 ovarian): 5.39 µM
GI50 (HL-60(TB) leukemia): 2.62 µM
TGI (HL-60(TB) leukemia): 9.01 µM
GI50 (SF-268 CNS): 2.52 µM
TGI (SF-268 CNS): 6.89 µM
GI50 (RPMI-8226 leukemia): 34 µM
TGI (RPMI-8226 leukemia): > 100 µM
GI50 (CAKI-1 renal): 16.8 µM
TGI (CAKI-1 renal): 52.8 µM
GI50 (SR leukemia): 2.14 µM
TGI (SR leukemia): 6.78 µM
GI50 (A549 NSCLC): 30.8 µM
TGI (A549 NSCLC): > 100 µM
GI50 (KM12 colon): 26.4 µM
TGI (KM12 colon): 94.3 µM
GI50 (786-0 renal): 32.1 µM
TGI (786-0 renal): > 100 µM
GI50 (SK-MEL-5 melanoma): 4.81 µM
TGI (SK-MEL-5 melanoma): 16.7 µM
GI50 (HOP-92 NSCLC): 20.6 µM
TGI (HOP-92 NSCLC): 64.6 µM
GI50 (MDA-MB-435): 12.1 µM
TGI (MDA-MB-435): 25.8 µM
GI50 (NCI-H226 lung): 23.4 µM
TGI (NCI-H226 lung): 79.7 µM
GI50 (SW-620 colon): 12.2 µM
TGI (SW-620 colon): 38.8 µM
GI50 (MDA-MB-468 breast): 2.14 µM
TGI (MDA-MB-468 breast): 5.69 µM
GI50 (SN12C renal): 5.36 µM
TGI (SN12C renal): 19.8 µM
GI50 (M14 melanoma): 4.94 µM
TGI (M14 melanoma): 27 µM
GI50 (PC-3 prostate): 9.01 µM
TGI (PC-3 prostate): 36.3 µM
GI50 (HCT-15 colon): 3.69 µM
TGI (HCT-15 colon): 20.1 µM
GI50 (IGROV1 ovarian): 1.97 µM
TGI (IGROV1 ovarian): 4.07 µM
GI50 (UO-31 renal): 15.1 µM
TGI (UO-31 renal): 65.8 µM
GI50 (LOX IMVI melanoma): 1.71 µM
TGI (LOX IMVI melanoma): 3.15 µM
GI50 (BT-549 breast): 13.1 µM
TGI (BT-549 breast): 27.9 µM
GI50 (NCI-H522 lung): 1.54 µM
TGI (NCI-H522 lung): 3.55 µM
GI50 (HOP-62 NSCLC): 19.7 µM
TGI (HOP-62 NSCLC): 57.6 µM
GI50 (MCF7 breast): 36.9 µM
TGI (MCF7 breast): > 100 µM
GI50 (HS 578T breast): 13.8 µM
TGI (HS 578T breast): 53.6 µM
GI50 (NCI/ADR-RES ovarian): 26.1 µM
TGI (NCI/ADR-RES ovarian): > 100 µM
GI50 (T-47D breast): 26.5 µM
TGI (T-47D breast): > 100 µM
GI50 (RXF 393 renal): 12.5 µM
TGI (RXF 393 renal): 35 µM
GI50 (UACC-62 melanoma): 5.4 µM
TGI (UACC-62 melanoma): 19.3 µM
GI50 (K-562 leukemia): 2.88 µM
TGI (K-562 leukemia): > 100 µM
GI50 (OVCAR-4 ovarian): 17.8 µM
TGI (OVCAR-4 ovarian): 47.2 µM
GI50 (MOLT-4 leukemia): 2.77 µM
TGI (MOLT-4 leukemia): 8.15 µM
GI50 (TK-10 renal): > 100 µM
TGI (TK-10 renal): > 100 µM
GI50 (NCI-H460 lung): 4.76 µM
TGI (NCI-H460 lung): 16.6 µM
